Here are results for six compounds from publication PMC5681435, “Differential Regulation of G1 CDK Complexes by the Hsp90-Cdc37 Chaperone System” (Cell Reports, 2017).

“Also recorded” adds a separate entry of the source.

One assay has as its system CDK4-cyclin D. Set-up: method as in Sherr et al., 2016. Particulars: ref Sherr et al., 2016; read-out: IC50 against CDK4-cyclin D; cited from earlier work.
A further assay has as its system CDK6-cyclin D. On the set-up: method as in Sherr et al., 2016. Particulars: ref Sherr et al., 2016; read-out: IC50 against CDK6-cyclin D; cited from earlier work.
For another assay, the target named is T1, CDK4-Cdc37 complex (Homo sapiens, UniProt P11802).
T1 construct: Full length human CDK4 and CDK6 with an N-terminal; made in house; host or cells: GSTCDK4: Sf9 insect cells; Cdc37: E. coli
T1 sequence (P11802 whole entry, one chain of several): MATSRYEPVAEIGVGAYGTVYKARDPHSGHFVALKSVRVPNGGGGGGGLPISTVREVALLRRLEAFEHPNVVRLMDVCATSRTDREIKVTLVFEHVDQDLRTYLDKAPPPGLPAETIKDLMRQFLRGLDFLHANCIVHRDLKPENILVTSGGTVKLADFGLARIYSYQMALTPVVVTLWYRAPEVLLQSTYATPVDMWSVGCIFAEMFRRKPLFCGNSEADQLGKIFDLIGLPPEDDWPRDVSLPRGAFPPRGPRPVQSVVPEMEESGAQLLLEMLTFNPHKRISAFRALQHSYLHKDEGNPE
Type of assay: binding. Conditions: HTRF competition, 8 nM GSTCDK4, 150 nM C-Avi Cdc37. A general note: Time-resolved FRET reads energy transfer from a long-lived donor to a nearby acceptor.

In another assay the target is T2, CDK6 (Homo sapiens, UniProt Q00534).
T2 construct: Full length human CDK4 and CDK6 with an N-terminal; made in house; host or cells: Sf9 insect cells (baculovirus, MultiBac)
T2 sequence (Q00534 whole entry): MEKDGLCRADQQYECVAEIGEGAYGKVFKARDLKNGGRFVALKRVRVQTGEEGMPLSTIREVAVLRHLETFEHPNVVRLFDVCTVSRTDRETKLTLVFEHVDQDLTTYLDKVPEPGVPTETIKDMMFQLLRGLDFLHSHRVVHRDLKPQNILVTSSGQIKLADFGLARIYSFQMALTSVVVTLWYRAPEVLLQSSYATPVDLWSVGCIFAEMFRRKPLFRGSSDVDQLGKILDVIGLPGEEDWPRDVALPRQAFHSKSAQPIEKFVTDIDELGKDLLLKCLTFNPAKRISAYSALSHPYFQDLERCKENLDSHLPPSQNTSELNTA
Kind of assay: HTRF direct binding to GSTCDK6. Particulars: GSTCDK6 10 nM, read-out: Dissociation constant for binding to CDK6. As to the method:
(§1) exchange chromatography (HiTrap Q, GE Healthcare). Protein concentrations were determined by NanoDrop2000 UV-Vis Spectrophotometer (Thermo Scientific) or using a Shimadzu UV1800 spectrophotometer. A representative SDS-polyacrylamide gel stained with silver is shown in Figure S4 to illustrate the purity of the GSTCDK4 and GSTCDK6 […]
(§2) Avi-tagged proteins (Cdc37, p16INK4a, p16INK4a mutants, Kcyclin and Vcyclin) were biotinylated to provide an affinity tag for the streptavidin-tagged XL665 dye. A substantial amount of biotinylated protein was purified from the recombinant E. coli cells as a result of endogenous BirA activity. Proteins were further modified by incubating 40 µM of the Avi-tagged protein with 10 µg BirA in biotinylation buffer (50 mM Bicine pH 8.3, 10 mM ATP, 10 mM MgOAc, 50 µM d-biotin) at 30°C for 60 minutes. […] The extent of protein biotinylation was monitored by pull downs using High Capacity NeutrAvidin® Agarose Resin (Thermo […]
(§3) To assemble the various complexes, 15 µg of Cdc37 was mixed with a molar equivalent of CDK6, and incubated for 1hour at 4 °C. […] The reactions were stopped by addition of 2 x LDS buffer and analysed by SDS-PAGE and subsequent western blotting using an anti-phosphorylated S780 antibody […]
(§4) Homogenous time-resolved fluorescence (HTRF) […]

A further assay addresses T3, CDK4 (Homo sapiens, UniProt P11802).
T3 construct: Full length human CDK4 and CDK6 with an N-terminal; made in house; host or cells: Sf9 insect cells (baculovirus, MultiBac)
Kind of assay: HTRF direct binding to GSTCDK4. Particulars: GSTCDK4 10 nM, read-out: Dissociation constant for binding to CDK4. As to the method: as §1, §2, §3, §4

The next assay deals with T4, CDK2 (Homo sapiens, UniProt P24941).
T4 construct: made in house; host or cells: E. coli BL21STAR(DE3)
Kind of assay: HTRF direct binding to GSTCDK2. Conditions: GSTCDK2 25 nM. On the procedure:
as §1, §2, §3, §4

Assay [1] deals with B-Raf^V600E kinase domain. On the set-up: method as in Polier et al., 2013. Conditions: isothermal titration calorimetry; ref Polier et al., 2013; read-out: Affinity of Cdc37-B-Raf^V600E kinase domain interaction; cited from earlier work. Background: Isothermal titration calorimetry measures the heat released or taken up as one component is titrated into another.
The target in assay [2] is T5, CDK4-cyclin D1/D3 complexes (Homo sapiens, UniProt P11802).
T5 construct: Full length human CDK4 and CDK6 with an N-terminal; made in house; host or cells: Sf9 insect cells (co-expression)
T5 sequence (P11802 whole entry): as the sequence (P11802 whole entry, one chain of several) above
T5 sequence (P30281 whole entry partner): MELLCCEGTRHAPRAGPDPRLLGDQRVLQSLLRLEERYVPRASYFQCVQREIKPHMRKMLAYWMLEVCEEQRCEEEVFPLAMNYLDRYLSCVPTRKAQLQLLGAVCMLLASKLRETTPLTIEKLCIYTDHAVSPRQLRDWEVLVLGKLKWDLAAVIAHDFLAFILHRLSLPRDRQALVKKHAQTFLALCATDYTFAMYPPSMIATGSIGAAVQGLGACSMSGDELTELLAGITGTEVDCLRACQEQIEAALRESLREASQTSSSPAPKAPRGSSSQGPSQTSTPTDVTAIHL
Kind of assay: HTRF association of Avi-tagged Cdc37 with GSTCDK4-cyclin D complexes with or without p21M/p27M. Particulars: ternary complex, Figure 4E. Type of assay: binding. On the procedure: To find out whether the CIP/KIP CKIs can cooperate with cyclin D isoforms to generate a stable ternary CDK4 complex that is resistant to displacement by Cdc37, we next purified GSTCDK4-cyclin D1 and D3 and GSTCDK6-cyclin D1 and D3 complexes assembled in insect cells, incubated them with excess p21M or p27M, and isolated the complexes by size-exclusion chromatography. We then used the HTRF assay to measure the association of Avi-tagged Cdc37 with GSTCDK4 and GSTCDK6, which were presented unpartnered, in a binary complex with cyclin D1 or cyclin D3, or in a ternary complex with cyclin D1 or D3 and p21M, or p27M. As shown previously, Cdc37 binds to monomeric CDK4 (Figures 4C and 4E, blue lines) and effectively displaces cyclin D1 or cyclin D3 (Figures 4C and 4E, red lines). […]
as §1
Avi-tagged proteins (Cdc37, p16INK4a, p16INK4a mutants, Kcyclin and Vcyclin) were biotinylated to provide an affinity tag for the streptavidin-tagged XL665 dye. […] The extent of protein biotinylation was monitored by pull downs using High Capacity NeutrAvidin® Agarose Resin (Thermo […]

T3 sequence (P11802 whole entry): as the sequence (P11802 whole entry, one chain of several) above

One may read the IC50 as the concentration needed to halve the response being measured. Turning to `CN(C)C(=O)c1cc2cnc(Nc3ccc(N4CCNCC4)cn3)nc2n1C1CCCC1` [LEE011, ribociclib], the IC50 in the assay on CDK4-cyclin D is 10 nM; in the assay on CDK6-cyclin D it was 39 nM.
Turning to `CCN1CCN(Cc2ccc(Nc3ncc(F)c(-c4cc(F)c5nc(C)n(C(C)C)c5c4)n3)nc2)CC1` [LY2835219, abemaciclib], the results for the IC50 in the assay with CDK4-cyclin D and in the assay with CDK6-cyclin D were 2 nM and 5 nM, respectively. The “Displacement of Cdc37 from CDK4-Cdc37 complex (in words)” value (shortened to “Displacement of Cdc37”) at CDK4-Cdc37 complex was “unable to derive reproducible inhibition curves”.
For `CC(=O)c1c(C)c2cnc(Nc3ccc(N4CCNCC4)cn3)nc2n(C2CCCC2)c1=O` [PD0332991, palbociclib], the results for the IC50 in the assay on CDK4-cyclin D and in the assay with CDK6-cyclin D were 11 nM and 15 nM, respectively.
On to “Cdc37: human Hsp90 adaptor co-chaperone Cdc37, recombinant, Avi- or FLAG-tagged”, for which the Kd with CDK6 was 460 ± 230 nM; with CDK4, 92 ± 29 nM; in assay [1], around 200 nM. Besides, the “Binding to CDK2” value with CDK2 was “not bind to CDK2; also recorded: no interaction could be detected”.
Turning to p21M: p21CIP1 fragment residues 1–87, in the assay with CDK4-Cdc37 complex, the “Displacement of Cdc37” value was “can displace”. The “Effect of addition to CDK4-cyclin D3 on Cdc37 binding” value in assay [2] is “prevent Cdc37 from binding”.
Consider p21S: p21CIP1 fragment residues 9–87, for which the “Displacement of Cdc37” value in the assay with CDK4-Cdc37 complex is on record as “can displace”.
